“And” between values parts separate entries of the source, which are not always exact repeats. Equal entries are not always repeated. Where two headings read alike, the source gives them in different places.

One data set addresses PTPμ (Homo sapiens, UniProt P28827). The data set is described as follows: PTP inhibition assay (pNPP).
Data set [1] relates to M. tuberculosis (Erdman and H37Rv) in J774 macrophages. The data set is described as follows: Macrophage assay: growth of M. tuberculosis in IFN-γ activated J774 macrophages. Format: cell-based, Mycobacterium tuberculosis.
The target of another data set is T1, Meg2 (Homo sapiens, UniProt P43378).
T1 sequence (P43378 1-593): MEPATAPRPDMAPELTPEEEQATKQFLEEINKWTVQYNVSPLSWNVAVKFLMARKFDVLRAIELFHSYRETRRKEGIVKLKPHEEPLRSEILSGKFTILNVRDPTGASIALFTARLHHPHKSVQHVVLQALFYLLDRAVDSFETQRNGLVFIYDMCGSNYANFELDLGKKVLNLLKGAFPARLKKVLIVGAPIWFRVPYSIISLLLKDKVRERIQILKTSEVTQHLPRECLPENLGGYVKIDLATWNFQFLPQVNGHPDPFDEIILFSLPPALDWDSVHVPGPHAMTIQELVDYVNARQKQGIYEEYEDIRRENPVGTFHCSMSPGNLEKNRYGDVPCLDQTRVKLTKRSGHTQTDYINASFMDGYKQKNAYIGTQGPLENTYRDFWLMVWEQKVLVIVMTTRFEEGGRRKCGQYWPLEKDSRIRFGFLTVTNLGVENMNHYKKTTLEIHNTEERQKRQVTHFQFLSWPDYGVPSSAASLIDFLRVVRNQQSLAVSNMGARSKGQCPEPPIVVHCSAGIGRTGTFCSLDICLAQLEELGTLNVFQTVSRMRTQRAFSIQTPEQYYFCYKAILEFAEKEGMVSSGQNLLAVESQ
The data set is described as follows: PTP inhibition assay (pNPP). Format: biochemical.

Another data set deals with T2, HePTP (Homo sapiens, UniProt P35236).
T2 sequence (P35236 1-360): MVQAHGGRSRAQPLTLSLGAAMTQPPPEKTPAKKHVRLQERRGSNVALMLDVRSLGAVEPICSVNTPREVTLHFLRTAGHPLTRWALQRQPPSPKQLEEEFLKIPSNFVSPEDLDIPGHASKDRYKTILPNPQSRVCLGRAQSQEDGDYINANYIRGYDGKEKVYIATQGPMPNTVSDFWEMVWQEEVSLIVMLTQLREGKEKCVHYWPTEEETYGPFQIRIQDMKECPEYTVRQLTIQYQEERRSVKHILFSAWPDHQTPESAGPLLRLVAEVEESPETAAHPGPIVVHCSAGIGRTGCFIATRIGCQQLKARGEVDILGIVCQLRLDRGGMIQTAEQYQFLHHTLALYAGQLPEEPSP
The data set is described as follows: PTP inhibition assay (pNPP). Conditions: pNPP at Km, pH 7.0, 25° C. It is filed as biochemical.

The subject of the next data set is M. tuberculosis Erdman. Put plainly: Microplate Alamar Blue assay (MABA) MIC. Format: cell-based. Conditions: Mycobacterium tuberculosis, minimum inhibitory concentration, read-out: In vitro anti-Mtb activity MABA-MIC Erdman. (Alamar Blue is a resazurin reagent that responds to reducing activity.)
The next data set has as its target T3, PTPH1 (Homo sapiens, UniProt P26045).
T3 sequence (P26045 1-913): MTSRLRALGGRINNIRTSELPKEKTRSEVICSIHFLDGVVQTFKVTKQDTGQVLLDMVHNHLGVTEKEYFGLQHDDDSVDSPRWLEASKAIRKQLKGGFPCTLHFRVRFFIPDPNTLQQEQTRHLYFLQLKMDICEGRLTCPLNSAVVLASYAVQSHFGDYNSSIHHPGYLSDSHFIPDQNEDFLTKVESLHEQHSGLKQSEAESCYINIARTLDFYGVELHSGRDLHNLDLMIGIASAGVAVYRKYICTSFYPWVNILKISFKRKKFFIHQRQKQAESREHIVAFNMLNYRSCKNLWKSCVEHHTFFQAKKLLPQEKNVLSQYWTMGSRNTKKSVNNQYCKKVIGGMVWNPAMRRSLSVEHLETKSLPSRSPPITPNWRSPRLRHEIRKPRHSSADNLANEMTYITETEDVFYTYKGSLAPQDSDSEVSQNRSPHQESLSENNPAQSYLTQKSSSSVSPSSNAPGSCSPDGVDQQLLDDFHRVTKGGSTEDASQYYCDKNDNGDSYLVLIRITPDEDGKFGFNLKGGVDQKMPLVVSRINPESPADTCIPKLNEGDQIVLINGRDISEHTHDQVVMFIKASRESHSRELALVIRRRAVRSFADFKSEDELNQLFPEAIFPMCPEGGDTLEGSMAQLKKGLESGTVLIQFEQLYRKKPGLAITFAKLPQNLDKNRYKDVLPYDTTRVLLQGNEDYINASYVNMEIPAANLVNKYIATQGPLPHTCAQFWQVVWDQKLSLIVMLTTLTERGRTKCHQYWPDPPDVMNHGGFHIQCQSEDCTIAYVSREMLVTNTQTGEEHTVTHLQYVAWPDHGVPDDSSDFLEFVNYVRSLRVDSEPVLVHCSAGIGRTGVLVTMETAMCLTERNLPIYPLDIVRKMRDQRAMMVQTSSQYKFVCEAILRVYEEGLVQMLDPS
The data set is described as follows: PTP inhibition assay (pNPP). It is filed as biochemical.

A further data set has as its target T4, MKP3 (Homo sapiens, UniProt Q16828).
T4 sequence (Q16828 1-381): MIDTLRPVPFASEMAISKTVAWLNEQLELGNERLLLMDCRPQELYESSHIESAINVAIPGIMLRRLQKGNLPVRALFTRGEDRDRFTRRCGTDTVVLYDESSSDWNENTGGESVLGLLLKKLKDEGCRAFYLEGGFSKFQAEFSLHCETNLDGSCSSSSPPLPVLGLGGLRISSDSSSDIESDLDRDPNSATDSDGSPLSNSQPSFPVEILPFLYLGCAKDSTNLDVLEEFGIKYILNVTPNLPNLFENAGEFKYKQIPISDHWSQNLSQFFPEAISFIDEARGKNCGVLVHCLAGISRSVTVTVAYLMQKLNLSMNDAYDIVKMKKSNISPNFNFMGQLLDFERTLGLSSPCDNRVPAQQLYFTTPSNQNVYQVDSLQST
The data set is described as follows: PTP inhibition assay (pNPP). Format: biochemical.

The next data set has as its target PTPσ (Homo sapiens, UniProt Q13332). Put plainly: PTP inhibition assay (pNPP). It is filed as biochemical.
For the next data set, the target named is T5, VHZ (Homo sapiens, UniProt Q9BVJ7).
T5 sequence (Q9BVJ7 1-150): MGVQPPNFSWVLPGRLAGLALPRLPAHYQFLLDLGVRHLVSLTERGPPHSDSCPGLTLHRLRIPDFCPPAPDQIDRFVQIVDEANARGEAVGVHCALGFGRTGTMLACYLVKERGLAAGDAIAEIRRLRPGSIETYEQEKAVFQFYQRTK
The data set is described as follows: PTP inhibition assay (pNPP). It is filed as biochemical.

Another data set in a line: Water solubility. It is filed as physicochemical.

Sequence of PTPσ (Q13332 30-1948): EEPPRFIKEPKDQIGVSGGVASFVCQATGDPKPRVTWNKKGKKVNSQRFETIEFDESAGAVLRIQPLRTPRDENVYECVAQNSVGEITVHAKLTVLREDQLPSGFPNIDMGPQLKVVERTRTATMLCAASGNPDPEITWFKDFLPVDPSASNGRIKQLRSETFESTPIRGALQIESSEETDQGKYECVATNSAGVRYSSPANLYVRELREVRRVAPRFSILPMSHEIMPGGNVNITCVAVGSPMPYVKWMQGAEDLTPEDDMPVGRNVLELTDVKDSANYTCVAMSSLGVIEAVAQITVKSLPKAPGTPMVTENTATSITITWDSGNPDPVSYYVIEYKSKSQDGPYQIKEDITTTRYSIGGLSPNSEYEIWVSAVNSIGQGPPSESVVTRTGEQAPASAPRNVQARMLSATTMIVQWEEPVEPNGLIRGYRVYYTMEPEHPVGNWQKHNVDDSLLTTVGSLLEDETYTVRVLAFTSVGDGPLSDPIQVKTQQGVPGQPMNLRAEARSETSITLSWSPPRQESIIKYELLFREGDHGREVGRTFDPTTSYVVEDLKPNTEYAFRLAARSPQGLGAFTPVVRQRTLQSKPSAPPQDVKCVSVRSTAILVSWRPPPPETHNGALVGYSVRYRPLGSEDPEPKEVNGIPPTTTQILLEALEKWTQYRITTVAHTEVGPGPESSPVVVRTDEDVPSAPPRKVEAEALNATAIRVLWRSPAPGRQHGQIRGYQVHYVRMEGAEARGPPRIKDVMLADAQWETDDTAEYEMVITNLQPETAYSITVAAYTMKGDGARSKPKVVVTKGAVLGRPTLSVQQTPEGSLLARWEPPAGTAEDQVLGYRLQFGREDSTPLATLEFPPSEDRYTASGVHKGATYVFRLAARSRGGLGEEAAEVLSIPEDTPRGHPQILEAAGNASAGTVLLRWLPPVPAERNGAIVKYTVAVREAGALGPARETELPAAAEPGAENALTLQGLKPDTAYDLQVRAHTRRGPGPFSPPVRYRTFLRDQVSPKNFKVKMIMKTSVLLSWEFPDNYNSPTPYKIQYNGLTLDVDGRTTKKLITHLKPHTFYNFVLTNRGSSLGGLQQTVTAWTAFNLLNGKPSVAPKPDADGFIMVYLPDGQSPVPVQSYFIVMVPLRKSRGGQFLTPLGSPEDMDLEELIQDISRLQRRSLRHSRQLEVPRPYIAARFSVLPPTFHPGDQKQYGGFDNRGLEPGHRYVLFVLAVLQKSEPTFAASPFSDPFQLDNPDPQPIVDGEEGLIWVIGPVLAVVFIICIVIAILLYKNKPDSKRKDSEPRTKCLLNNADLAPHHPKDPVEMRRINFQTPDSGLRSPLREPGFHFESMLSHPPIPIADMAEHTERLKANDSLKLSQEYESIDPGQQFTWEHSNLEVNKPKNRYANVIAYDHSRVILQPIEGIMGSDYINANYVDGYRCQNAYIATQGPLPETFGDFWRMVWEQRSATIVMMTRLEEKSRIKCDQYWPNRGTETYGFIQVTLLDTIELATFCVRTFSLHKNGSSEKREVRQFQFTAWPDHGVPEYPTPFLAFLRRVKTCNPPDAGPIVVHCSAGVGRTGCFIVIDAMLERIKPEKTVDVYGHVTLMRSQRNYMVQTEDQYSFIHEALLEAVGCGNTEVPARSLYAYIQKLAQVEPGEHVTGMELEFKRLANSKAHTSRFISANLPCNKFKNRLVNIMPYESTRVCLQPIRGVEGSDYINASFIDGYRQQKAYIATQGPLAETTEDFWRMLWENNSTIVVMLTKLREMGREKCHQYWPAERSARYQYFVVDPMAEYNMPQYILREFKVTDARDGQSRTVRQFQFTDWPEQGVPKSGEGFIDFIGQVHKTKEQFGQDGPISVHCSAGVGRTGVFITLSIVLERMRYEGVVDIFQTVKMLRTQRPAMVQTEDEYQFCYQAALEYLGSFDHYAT
Sequence of PTPμ (P28827 21-1452): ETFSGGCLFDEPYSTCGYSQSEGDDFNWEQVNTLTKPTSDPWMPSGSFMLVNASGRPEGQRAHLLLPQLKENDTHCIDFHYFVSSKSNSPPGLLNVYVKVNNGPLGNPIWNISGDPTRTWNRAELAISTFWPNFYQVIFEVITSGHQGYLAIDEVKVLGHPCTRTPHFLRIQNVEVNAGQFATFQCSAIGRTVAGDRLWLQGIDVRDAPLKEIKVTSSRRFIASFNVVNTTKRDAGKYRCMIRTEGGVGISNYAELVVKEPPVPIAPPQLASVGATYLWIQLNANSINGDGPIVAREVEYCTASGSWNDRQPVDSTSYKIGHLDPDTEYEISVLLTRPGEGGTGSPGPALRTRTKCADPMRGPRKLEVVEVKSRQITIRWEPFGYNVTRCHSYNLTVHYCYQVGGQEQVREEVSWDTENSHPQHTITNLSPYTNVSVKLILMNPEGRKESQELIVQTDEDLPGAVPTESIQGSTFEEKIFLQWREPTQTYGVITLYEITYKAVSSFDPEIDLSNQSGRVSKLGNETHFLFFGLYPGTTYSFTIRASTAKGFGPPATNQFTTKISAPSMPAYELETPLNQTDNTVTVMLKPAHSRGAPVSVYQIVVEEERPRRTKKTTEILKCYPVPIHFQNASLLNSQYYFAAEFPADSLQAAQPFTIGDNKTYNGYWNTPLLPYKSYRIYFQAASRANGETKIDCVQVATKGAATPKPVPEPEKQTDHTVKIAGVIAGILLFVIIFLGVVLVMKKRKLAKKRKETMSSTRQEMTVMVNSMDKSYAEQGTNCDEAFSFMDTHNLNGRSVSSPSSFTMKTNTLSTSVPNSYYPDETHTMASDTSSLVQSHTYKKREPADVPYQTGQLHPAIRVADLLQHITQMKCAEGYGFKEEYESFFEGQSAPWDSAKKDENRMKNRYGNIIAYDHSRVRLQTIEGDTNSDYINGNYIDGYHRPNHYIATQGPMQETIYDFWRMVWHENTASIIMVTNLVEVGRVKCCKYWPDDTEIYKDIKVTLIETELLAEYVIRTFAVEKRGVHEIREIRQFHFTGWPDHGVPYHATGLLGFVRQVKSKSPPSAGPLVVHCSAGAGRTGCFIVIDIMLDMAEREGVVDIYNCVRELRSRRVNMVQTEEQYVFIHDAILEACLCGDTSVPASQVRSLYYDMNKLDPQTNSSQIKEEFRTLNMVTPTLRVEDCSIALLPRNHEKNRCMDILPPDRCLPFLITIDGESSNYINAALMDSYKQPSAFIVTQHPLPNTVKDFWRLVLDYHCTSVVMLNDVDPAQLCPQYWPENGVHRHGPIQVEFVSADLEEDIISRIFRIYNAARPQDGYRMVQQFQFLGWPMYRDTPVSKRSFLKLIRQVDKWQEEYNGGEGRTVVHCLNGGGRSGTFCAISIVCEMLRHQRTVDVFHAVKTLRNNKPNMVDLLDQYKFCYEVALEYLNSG

In the case of `Cc1c(Br)cc(NC(=O)CS(=O)(=O)O)cc1Br`, the half-inhibitory concentration (IC50) against PTPμ, against Meg2 and against HePTP was more than 100 µM in each case. For the same compound, the “Anti-Mtb activity in infected macrophages” value in [1] (J774A.1 macrophages, low micromolar concentrations) is listed as “markedly decrease bacterial load”. Moreover, in data set [1] (Mycobacterium tuberculosis, J774, IC90 in macrophages activated with interferon-γ, read-out: In vitro anti-Mtb activity, Mtb-infected macrophages (IC90)), the IC90 – broadly, the point of the concentration-response curve where the effect stands at 90% – amounted to 1.38 µM. Also, the minimal inhibitory concentration (MIC) – broadly, the lowest concentration found to suppress growth – with M. tuberculosis Erdman is more than 10 µM.

In the case of `O=C(CS(=O)(=O)O)Nc1ccc2nc(C(F)(F)F)[nH]c2c1`, the IC50 against PTPμ, on PTPH1, at MKP3, at Meg2, against HePTP and on PTPσ (read-out: IC50 PTPσ) was more than 100 µM each time.

For `O=C(CS(=O)(=O)O)Nc1cnc2ccccc2c1`, the IC50 at PTPμ, at PTPH1, against MKP3, against Meg2, on HePTP and at PTPσ (read-out: IC50 PTPσ) was more than 100 µM throughout.

In the case of `O=C(NCCNC(=O)C(c1ccccc1)S(=O)(=O)O)c1cccc(C(=O)c2ccccc2)c1` (stereo not drawn) [Compound L319-02-A60], the IC50 (commonly the concentration at which inhibition is half-maximal) on HePTP was more than 200 µM.

Turning to `O=C(NCc1ccc(NC(=O)C(c2ccccc2)S(=O)(=O)O)cc1)c1ccccc1-c1ccc(C(F)(F)F)cc1` (stereo not drawn) [Compound L319-05-A64], the IC50 against HePTP was found to be 150 µM.

With `CCCCc1ccc(NC(=O)C(=O)Nc2ccccc2NC(=O)C(c2ccccc2)S(=O)(=O)O)cc1` (stereo not drawn) [Compound L319-21-M06], the 50% inhibitory concentration (IC50) at HePTP was more than 50 µM.

The compound `O=C(Nc1cccc(OCc2ccccc2)c1)C(=O)Nc1ccccc1NC(=O)C(c1ccccc1)S(=O)(=O)O` (stereo not drawn) [Compound L319-21-M52] yielded an IC50 at HePTP of more than 50 µM.

In the case of `Cc1c(Br)cc(NC(=O)C(c2ccccc2)S(=O)(=O)O)cc1Br` (stereo not drawn) [Compound L319M34], the IC50 on HePTP is more than 100 µM.

On HePTP, `O=C(Nc1ccc(OCc2ccccc2)c(Cl)c1)C(c1ccccc1)S(=O)(=O)O` (stereo not drawn) [Compound L319M50] displayed a half-maximal inhibitory concentration (IC50) of more than 100 µM.

Consider `O=C(Nc1cccc(OCc2ccccc2)c1)C(c1ccccc1)S(=O)(=O)O` (stereo not drawn) [Compound L319M52], for which the half-maximal inhibitory concentration (IC50) against PTPμ is more than 200 µM; at VHZ it was more than 200 µM; against PTPH1, more than 200 µM; against MKP3 it was more than 200 µM; against Meg2, more than 200 µM; at HePTP, 130 µM and > 100 µM. Also, the 50% inhibitory concentration (IC50) at PTPσ (read-out: IC50 PTPσ) was more than 200 µM.

For `O=C(Nc1ccc2nc(C(F)(F)F)[nH]c2c1)C(c1ccccc1)S(=O)(=O)O` (stereo not drawn) [Compound L319M54], the IC50 against PTPμ, on VHZ, against MKP3, at Meg2, against HePTP and at PTPσ was more than 200 µM each time.

`O=C(Nc1ccc(N2CCOCC2)cc1)C(c1ccccc1)S(=O)(=O)O` (stereo not drawn) [Compound L319M68]: the 50% inhibitory concentration (IC50) against PTPμ, against MKP3, against Meg2, at HePTP and against PTPσ was more than 200 µM throughout.

Regarding `O=C(Nc1cnc2ccccc2c1)C(c1ccccc1)S(=O)(=O)O` (stereo not drawn) [Compound L319M88], the IC50 at PTPμ, against MKP3, at Meg2, against HePTP and against PTPσ was more than 200 µM in each case.

`O=C(Nc1ccc(-c2ccccc2)cc1)C(c1ccccc1)S(=O)(=O)O` (stereo not drawn) [Compound L319N08] registered a half-maximal inhibitory concentration (IC50) on HePTP of 78 µM.

As for `O=C(Nc1nc2ccccc2s1)C(c1ccccc1)S(=O)(=O)O` (stereo not drawn) [Compound L319N15], the concentration for half-maximal inhibition (IC50) is more than 200 µM on PTPμ; more than 200 µM against VHZ; more than 200 µM at MKP3; more than 200 µM on Meg2; 50 µM on HePTP; more than 200 µM against PTPσ.

For the compound `O=C(C(c1ccccc1)S(=O)(=O)O)N1CCC(Cc2ccccc2)CC1` (stereo not drawn) [Compound L319N46], the IC50 against PTPμ, against VHZ, on PTPH1, on MKP3, against Meg2 and against HePTP was more than 200 µM each time. Besides, the IC50 at PTPσ (read-out: IC50 PTPσ) is more than 200 µM. For the same compound, in “Water solubility”, the solubility (in general, the dissolved amount per volume that the medium holds) is more than 10000 µg/mL.

With `O=C(C(c1ccccc1)S(=O)(=O)O)N1CCC(c2ccc(Cl)c(Cl)c2)CC1` (stereo not drawn) [Compound L319N47], the IC50 was more than 200 µM against PTPμ; 80 µM against VHZ; 30 µM at PTPH1; more than 200 µM against MKP3; 147 µM at Meg2; 77 µM at HePTP. Moreover, the IC50 at PTPσ (read-out: IC50 PTPσ) is more than 200 µM. This compound gave a solubility in “Water solubility” of more than 10000 µg/mL.

With `O=C(C(c1ccccc1)S(=O)(=O)O)N1CCCC2CCCCC21` (stereo not drawn) [Compound L319N53], the IC50 at PTPμ, against VHZ, at PTPH1, against MKP3, on Meg2 and against HePTP was more than 200 µM in each case. Moreover, the IC50 at PTPσ (read-out: IC50 PTPσ) was more than 200 µM. In “Water solubility”, this compound gave a solubility of more than 10000 µg/mL.

With `O=C(CS(=O)(=O)O)Nc1nc2ccc([N+](=O)[O-])cc2s1` [Compound L335N15-07], the half-inhibitory concentration (IC50) on PTPμ, against PTPH1, on MKP3, at Meg2, on HePTP and at PTPσ (read-out: IC50 PTPσ) was more than 100 µM each time.

For `O=C(CS(=O)(=O)O)Nc1nc2ccccc2s1` [Compound L335N15], the IC50 at PTPμ, on PTPH1, on MKP3, at Meg2, against HePTP and on PTPσ (read-out: IC50 PTPσ) was more than 100 µM throughout.
